Entries after “also recorded” stand apart in the source; their conditions may differ.
Assays:
Assay type in all cases: cell-based, human
H3K79me2 (DOT1L) = assay: Histone marks by western blot in colon cancer cells
Method: (§1) (A) IL-22 induces H3K79me2 in colon cancer cells. Colon cancer cells were treated with IL-22 for 48 hours. Total histone modifications were analyzed by western blot. (B, C) DOT1L inhibitor, EPZ004777 suppresses colon cancer sphere formation induced by IL-22. Colon cancer sphere assay was performed in the presence of IL-22 and EPZ004777. Sphere numbers were recorded. DLD-1 cells (B), primary colon cancer cells (C). (n=5, P<0.05). (D, E) IL-22 stimulates DOT1L complex gene expression. Colon cancer cells were cultured for 12 hours with IL-22. DOT1L complex gene expression was quantified by real-time PCR. DLD-1 cells (D), primary colon cancer cells (E). (n=3, P<0.05). (F) DOT1L knock down results in reduced colon cancer sphere formation induced by IL-22. Colon cancer sphere assay was performed with colon cancer cells expressing sh-DOT1L or vector in the presence of IL-22. Sphere numbers were recorded. (n=5, P<0.05). (G-I), IL-22 causes higher occupancy of H3K79me2 on core stem cell gene promoters. H3K79me2-ChIP assay was performed in DLD-1 colon cancer cells cultured with IL-22. One of 3 experiments is shown. […]
DLD1 and primary colon cancer cells (#2) were cultured with different concentrations of EPZ004777. Histone marks were detected by western blot. […]
Colon cancer cells were transfected with control vectors or the shDOT1L vector. Histone marks were detected by Western blot. […]

[1] = tested on: H3K79me2 on NANOG, SOX2, POU5F1 promoters; assay: H3K79me2-ChIP at core stem cell gene promoters
Method: as §1, with “shown. (J-L), DOT1L inhibitor, EPZ004777 results in reduced occupancy of H3K79 on core stem cell gene promoters induced by IL-22. H3K79me2 ChIP was performed in DLD-1 colon cancer cells cultured with or without IL-22 and EPZ004777. One of three experiments is shown.” for “shown.”

colon cancer cells = assay: Colon cancer cell proliferation (Ki67 FACS, H3 thymidine incorporation, cell counting)
From the text: A. GSEA analysis identifies proliferation pathways have positive correlation with IL-22. B. Cell proliferation maker Ki67 was detected by FACS. C. H^3 Thymidine Incorporation was used to detect the function of IL-22 in cell proliferation. D. Cell number was counted after stimulated with IL-22. E. Cells isolated from colon cancer tissue (Tumor cells and Leukocytes) were stimulated with a-CD3 and […] for 3 days, and supernatant mixed with or without anti-IL-22 antibody was co-cultured with DLD1 cells for 24 h to test cell proliferation. F. Cell cyclin-dependent kinase and kinase inhibitors were analyzed by Real-Time PCR.
A, C. Cell proliferation was analyzed using H^3 Thymidine Incorporation. B. The level of total H3K79m2 and H3K27me3 was measured by Western Blot. D. PcG proteins of EZH2, EED, SUZ12 was increased with IL-22(20 ng/ml) treatment. E. EZH2, SUZ12 and EED was detected by Western Blot after IL-22 treated for 24 h or 48 h. F. EZH2 inhibitor DZNep reduced cell proliferation. G.H. The efficiency of EZH2 and SUZ12 knock down was tested by Western Blot. I.J. Cell proliferation was analyzed using H^3 Thymidine Incorporation after knock down of EZH2 and SUZ12. K.L. Relative expression of cyclin-dependent kinase inhibitors (p16 and p18) in shEZH2, shSUZ12 and Dznep treated cells after IL-22 treatment. M. The level of H3K27me3 in the promoter of p16 and p18 was analyzed by ChIP assay.
A. The protein level of phosphorylated STAT3, STAT1 and STATS were activated by IL-22. B. The effect of STAT3 knock down. C. The effect of IL-22 on cell proliferation was analyzed using H^3 Thymidine Incorporation in Stat3 knock down cells. D. Knock down of STAT3 reduced the expression of EZH2 and SUZ12. E. Based on the ENCODE STAT3-ChIP-Seq data base, STAT3 occupancy on the promoter areas of SUZ12 and EED is shown. F. SUZ12/EED DNA was detected by ChIP assay using an antibody against STAT3, c-fos was used as a positive control.
Three primary colon cancer cell lines (SB, WR, JR) were established from fresh colon tissues. These primary colon cancer cells and DLD1 (ATCC) were studied. Colon cancer cells were treated with recombinant IL-22 (R&D) for different time points. The EZH2 inhibitor DZNep was added in conventional or sphere culture (see, e.g., Kryczek, I., et al., (2012) International journal of cancer 130, 29-39). Tumor cell sphere formation and gene expression were examined (see, e.g., Kryczek, I., et al., (2012) International journal of cancer 130, 29-39).

Compound | H3K79me2 / H3K79 methylation (H3K79me2 (DOT1L); DLD1 and primary colon cancer cells (#2), different concentrations) | H3K79me2 binding in the stem cell gene promoter sites induced by IL-22 ([1]; DLD-1 with or without IL-22 and EPZ004777) | colon cancer cell proliferation induced by IL-22 (colon cancer cells; H3 thymidine incorporation) | dimethylation of histone 3 lysine 79 (H3K79me2), total (H3K79me2 (DOT1L); colon cancer cells, IL-22 48 hours) | H3K79me2 binding in proximal promoter areas of NANOG, SOX2, POU5F1 ([1]; DLD-1 cultured with IL-22) | expression of Ki-67 (colon cancer cells; FACS) | cell proliferation (colon cancer cells; H3 thymidine incorporation and cell number counting)
CC(C)N(CCCNC(=O)Nc1ccc(C(C)(C)C)cc1)C[C@H]1O[C@@H](n2ccc3c(N)ncnc32)[C@H](O)[C@@H]1O [EPZ004777] | reduced; also recorded: specifically inhibits | reduced | no influence |  |  |  | 
IL-22: recombinant IL-22 (R&D systems), cytokine interleukin-22 |  |  |  | selectively increased | increase | increased | increased
